Measured values as given in patent publication US20230219956A1 (BETTA PHARMACEUTICALS CO.,LTD, priority 2019, published 2023).

Key:
MIA-PACA-2 cells = experiment: Cell proliferation assay, MIA-PACA-2 cells (Cell-titer Glo); format: cell-based; conditions: Homo sapiens, 96 h incubation
Protocol: (§1) Pave the MIA-PACA-2 cells into a 96-well ultra-low adsorption plate at 600 cells, 160 μL/well. After incubating overnight, compound solutions of gradient concentration was prepared, and added 40 μL of DMSO solution of the test compound of each concentration to the cells of each well. The final concentration of the compound is 10000, 2000, 400, 80, 16, 3.2, 0.64, 0.12, 0.025, 0 nM (the final concentration of DMSO is 0.25%). Incubated for 96 h at 37° C. and 5% CO2. 50 μL of Cell-titer Glo working solution was added to each well, shaked and mixed, and incubated at room temperature for 10 minutes. The multi-functional microplate reader read the luminescence value, and converted the luminescence value reading into inhibition percentage.
(§2) Inhibition percentage=(maximum value−reading)/(maximum value−minimum value)*100.
(§3) The “maximum value” was the DMSO control, the “minimum value” indicates the cell-free control group.
(§4) Graphpad Prism software was used to perform curve fitting and obtain IC50 value.
Refer to Table 3 for the IC50 data of some compounds in the examples inhibiting MIA-PACA-2 cells.

H358 cells = experiment: Cell proliferation assay, H358 cells (Cell-titer Glo); format: cell-based; conditions: Homo sapiens, NCI-H358, 96 h incubation
Protocol: as §1, with “the H358” for “the MIA-PACA-2”, “cells on” for “cells into”, “plate with 2000 cells and 190” for “plate at 600 cells, 160”, “added 10” for “added 40”, “10000, 3333.3, 1111.1, 370.4, 123.5, 41.2, 13.7, 4.6, 1.5,” for “10000, 2000, 400, 80, 16, 3.2, 0.64, 0.12, 0.025,”
as §2, §3, §4
Refer to table 3 for the IC50 data of some compounds in the Examples for inhibiting H358 cells.

IC50 (MIA-PACA-2 cells) [nM]	IC50 (H358 cells) [nM]	SMILES
3.6	2.6	C=CC(=O)N1CC2(CCN(c3nc(C4CCN(CCF)CC4)nc4c(OCC(F)(F)F)c(-c5c(C)ccc6[nH]ncc56)c(C=C)cc34)CC2)C1 [Example 75, 1-(7-(2-(1-(2-(fluoroethyl))piperidin-4-yl)-7-(5-methyl-1H-indazole-4-yl)-8-(2,2,2-trifluoroethoxy)-6-vinylquinazolin-4-yl)-2,7-diazarospiro [3.5]nonan-2-yl) propyl-2-en-1-one]
2.4	1.6	C=CC(=O)N1CC2(CCN(c3nc(C4CCN(C(C)CO)CC4)nc4c(OCC(F)(F)F)c(-c5c(C)ccc6[nH]ncc56)c(C=C)cc34)CC2)C1 (stereo not drawn) [Example 68, l-(7-(2-(l-(1-hydroxypropane-2-yl)piperidin-4-yl)-7-(5-methyl-1H-indazol-4-yl)-8-(2,2,2-trifluoroethoxy)-6-vinylquinazolin-4-yl)-2,7-diazspiro [3.5]nonan-2-yl) propyl-2-en-1-one]
21.4	19.3	C=CC(=O)N1CC2(CCN(c3nc(C4CCN(CC5CC(F)(F)C5)CC4)nc4c(OCC(F)(F)F)c(-c5c(C)ccc6[nH]ncc56)c(C=C)cc34)CC2)C1 [Example 76, 1-(7-(2-(1-((3,3-difluorocyclobutyl)methyl)piperidin-4-yl)-7-(5-methyl-1H-indazole-4-yl)-8-(2,2,2-trifluoroethoxy)-6-vinylquinazolin-4-yl)-2,7-diazspiro [3.5]nonan-2-yl) propyl-2-en-1-one]
62.8	27.2	C=CC(=O)N1CC2(CCN(c3nc(C4CCN(Cc5cnn(C)c5)CC4)nc4c(OCC(F)(F)F)c(-c5c(C)ccc6[nH]ncc56)c(C=C)cc34)CC2)C1 [Example 78, 1-(7-(7-(5-methyl-1H-indazol-4-yl)-2-(1-((1-methyl-1H-pyrazol-4-yl)methyl)piperidin-4-yl]-8-(2,2,2-trifluoroethoxy)-6-vinylquinazolin-4-yl)-2,7-diazarospiro [3.5]nonan-2-yl) propyl-2-en-1-one]
5.9	5.2	C=CC(=O)N1CC2(CCN(c3nc(C4CCN(C5CCN(C(C)=O)CC5)CC4)nc4c(OCC(F)(F)F)c(-c5c(C)ccc6[nH]ncc56)c(C=C)cc34)CC2)C1 [Example 72, 1-(7-(2-(1acetyl-[1,4'-bipiperidine]-4-yl)-7-(5-methyl-1H-indazole-4-yl)-8-(2,2,2-trifluoroethoxy)-6-vinylquinazolin-4-yl)-2,7-diazspiro [3.5]nonan-2-yl) propyl-2-en-1-one]
169	155	C=CC(=O)N1CC2(CCN(c3nc(C4CN(C5CCCC5)C4)nc4c(OCC(F)(F)F)c(-c5c(C)ccc6[nH]ncc56)c(CC)cc34)CC2)C1 [Example 44, 1-(7-(2-(1-cyclopentyl-azacyclobutane-3-yl)-6-ethyl-7-(5-methyl-1H-indazole-4-yl)-8-(2,2,2-trifluoroethoxy)quinazolin-4-yl)-2,7-diazarospiro [3.5]nonan-2-yl) propyl-2-en-1-one]
778	466	C=CC(=O)N1CC2(CCN(c3nc(C4CN(C(=O)C5CC5)C4)nc4c(OCC(F)(F)F)c(-c5c(C)ccc6[nH]ncc56)c(CC)cc34)CC2)C1 [Example 45, 1-(7-(2-(1-(Cyclopropanecarbonyl)azacyclobutane-3-yl)-6-ethyl-7-(5-methyl-1H-indazol-4-yl)-8-(2,2,2-trifluoroethoxy)quinazolin-4-yl)-2,7-diazaspo [3.5]nonan-2-yl) propyl-2-en-1-one]
6.9	4.6	C=CC(=O)N1CC2(CCN(c3nc(C4CCN(C5CCC(C#N)CC5)CC4)nc4c(OCC(F)(F)F)c(-c5c(C)ccc6[nH]ncc56)c(C=C)cc34)CC2)C1 (stereo not shown) [Example 67, 4-(4-(4-(2-acryloyl-2,7-diazazospiro [3.5]nonan-7-yl)-7-(5-methyl-1H-indazole-4-yl)-8-(2,2,2-trifluoroethoxy)-6-vinylquinazolin-2-yl)piperidin-1-yl) cyclohexane-1-methylnitrile]
57.1	16.6	C=CC(=O)N1CCC(c2nc(N3CCC4(CC3)CN(C(=O)C=C)C4)c3cc(C=C)c(-c4c(C)ccc5[nH]ncc45)c(OCC(F)(F)F)c3n2)CC1 [Example 64, 1-(4-(4-(2-acryloyl-2,7-diazazospiro [3.5]nonan-7-yl)-7-(5-methyl-1H-indazole-4-yl)-8-(2,2,2-trifluoroethoxy)-6-vinylquinazolin-2-yl)piperidin-1-yl) propyl-2-en-1-one]

More lines, now with the values behind:

SMILES	IC50 (MIA-PACA-2 cells) [nM]	IC50 (H358 cells) [nM]
C=CC(=O)N1CCN(c2nc(C3CCN(C)CC3)nc3c(OCC(F)(F)F)c(-c4c(C)ccc5[nH]ncc45)c(C=C)cc23)[C@@H](C)C1 [Example 52, 1-((3S)-3-methyl-4-(7-(5-methyl-1H-indazole-4-yl)-2-(1-methylpiperidin-4-yl)-8-(2,2,2-trifluoroethoxy)-6-vinylquinazolin-4-yl)piperazin-1-yl) propyl-2-en-1-one]	114	104
C=CC(=O)N1CC2(CCN(c3nc(C4CCN(C)CC4)nc4c(OCC(F)(F)F)c(-c5cc(F)cc(F)c5)c(C5CC5)cc34)CC2)C1 [Example 20]	1320	4200
C=CC(=O)N1CC2(CCN(c3nc(C4CCN(CCS(C)(=O)=O)CC4)nc4c(OCC(F)(F)F)c(-c5c(C)ccc6[nH]ncc56)c(C=C)cc34)CC2)C1 [Example 57, 1-(7-(7-(5-methyl-1H-indazol-4-yl)-2-(1-(2-(methylsulfonyl)ethyl)piperidine-4-yl)-8-(2,2,2-trifluoroethoxy)-6-vinylquinazolin-4-yl)-2,7-diazaspiro[3.5]nonan-2-yl) prop-2-en-1-one]	6.8	7.3
C=CC(=O)N1CC2(CCN(c3nc(C4CCN(C)CC4)nc4c(OCCOC)c(C5CC5)c(C5CC5)cc34)CC2)C1 [Example 23]	647	1700
C=CC(=O)N1CC2(CCN(c3nc(C4CCN(C)CC4)nc4c(OCC(F)(F)F)c(-c5ccnc6[nH]ncc56)c(C5CC5)cc34)CC2)C1 [Example 18]	177	715
C=CC(=O)N1CC2(CCN(c3nc(C4CN(CC(C)(C)O)C4)nc4c(OCC(F)(F)F)c(-c5c(C)ccc6[nH]ncc56)c(CC)cc34)CC2)C1 [Example 38, 1-(7-(6-ethyl-2-(1-(2-hydroxy-2-methylpropyl)azetidin-3-yl)-7-(5-methyl-1H-indazol-4-yl)-8-(2,2,2-trifluoroethoxy)quinazolin-4-yl)-2,7-diazaspiro[3.5]nonan 2-yl) prop-2-en-1-one]	74.2	59.3
C=CC(=O)N1CC2(CCN(c3nc(C4CCN(C5CC6CCC(C5)N6C)CC4)nc4c(OCC(F)(F)F)c(-c5c(C)ccc6[nH]ncc56)c(C=C)cc34)CC2)C1 (stereo not shown) [Example 83, 1-(7-(7-(5-methyl-1H-indazole-4-yl)-2-(1-(8-methyl-8-azabicyclo [3.2.1]cindan-3-yl]piperidin-4-yl)8(2,2,2-trifluoroethoxy)-6-vinylquinazolin-4-yl)-2,7-diazspiro [3.5]nonan-2-yl) propyl-2-en-1-one]	136	159
C=Cc1cc2c(N3CCC4(CC3)CN(C(=O)C(=C)F)C4)nc(C3CCN(C)CC3)nc2c(OCC(F)(F)F)c1-c1c(C)ccc2[nH]ncc12 [Example 84, 2-Fluoro-1-(7-(7-(5-methyl-1H-indazol-4-yl)-2-(1-methylpiperidin-4-yl)-8-(2,2,2-trifluoroethoxy)-6-vinylquinazolin-4-yl)-2,7-diazaspiro[3.5]nonan-2-yl)propan-2-en-1-one]	60.3	16.5
